Experimental data taken from PubChem BioAssay (NCI).
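Where inhibition never reached the appropriate level, the endpoint shown equals the highest concentration tested. Otherwise, values were interpolated linearly from a five-concentration, 48-hour dose response in 96-well plates. TGI denotes the concentration required for complete inhibition of growth.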

Tests used:
Experiment in all cases: NCI-60 cell line screen, 48 h
786-0 renal = system: 786-0 renal
A498 renal = system: A498 renal
A549 NSCLC = system: A549 NSCLC
ACHN renal = system: ACHN renal
BT-549 breast = system: BT-549 breast
CAKI-1 renal = system: CAKI-1 renal
CCRF-CEM leukemia = system: CCRF-CEM leukemia
COLO 205 colon = system: COLO 205 colon
DU-145 prostate = system: DU-145 prostate
EKVX NSCLC = system: EKVX NSCLC
HCC-2998 colon = system: HCC-2998 colon
HCT-116 colon = system: HCT-116 colon
HCT-15 colon = system: HCT-15 colon
HL-60(TB) leukemia = system: HL-60(TB) leukemia
HOP-62 NSCLC = system: HOP-62 NSCLC
HOP-92 NSCLC = system: HOP-92 NSCLC
HS 578T breast = system: HS 578T breast
HT29 colon = system: HT29 colon
IGROV1 ovarian = system: IGROV1 ovarian
K-562 leukemia = system: K-562 leukemia
KM12 colon = system: KM12 colon
LOX IMVI melanoma = system: LOX IMVI melanoma
M14 melanoma = system: M14 melanoma
MALME-3M melanoma = system: MALME-3M melanoma
MCF7 breast = system: MCF7 breast
MDA-MB-231 breast = system: MDA-MB-231 breast
MDA-MB-435 = system: MDA-MB-435
MDA-N = system: MDA-N
MOLT-4 leukemia = system: MOLT-4 leukemia
NCI-H226 lung = system: NCI-H226 lung
NCI-H23 lung = system: NCI-H23 lung
NCI-H460 lung = system: NCI-H460 lung
NCI-H522 lung = system: NCI-H522 lung
NCI/ADR-RES ovarian = system: NCI/ADR-RES ovarian
OVCAR-3 ovarian = system: OVCAR-3 ovarian
OVCAR-4 ovarian = system: OVCAR-4 ovarian
OVCAR-5 ovarian = system: OVCAR-5 ovarian
OVCAR-8 ovarian = system: OVCAR-8 ovarian
PC-3 prostate = system: PC-3 prostate
RPMI-8226 leukemia = system: RPMI-8226 leukemia
RXF 393 renal = system: RXF 393 renal
SF-268 CNS = system: SF-268 CNS
SF-295 CNS = system: SF-295 CNS
SF-539 CNS = system: SF-539 CNS
SK-MEL-28 melanoma = system: SK-MEL-28 melanoma
SK-MEL-5 melanoma = system: SK-MEL-5 melanoma
SK-OV-3 ovarian = system: SK-OV-3 ovarian
SN12C renal = system: SN12C renal
SNB-19 CNS = system: SNB-19 CNS
SNB-75 CNS = system: SNB-75 CNS
SR leukemia = system: SR leukemia
SW-620 colon = system: SW-620 colon
T-47D breast = system: T-47D breast
TK-10 renal = system: TK-10 renal
U251 CNS = system: U251 CNS
UACC-257 melanoma = system: UACC-257 melanoma
UACC-62 melanoma = system: UACC-62 melanoma
UO-31 renal = system: UO-31 renal
SK-MEL-2 melanoma = system: SK-MEL-2 melanoma

Work on `COc1cc(OC)c2c(=O)c(O)c(-c3ccc(OC)c(OC)c3)oc2c1` yielded a TGI (786-0 renal) greater than 100 µM, a TGI (A498 renal) greater than 100 µM and a TGI (A549 NSCLC) greater than 100 µM. It also gave a TGI (ACHN renal) greater than 100 µM, a TGI (BT-549 breast) greater than 100 µM and a TGI (CAKI-1 renal) greater than 31.4 µM. For the same compound, the TGI (CCRF-CEM leukemia) was greater than 100 µM, the TGI (COLO 205 colon) was greater than 100 µM and the TGI (DU-145 prostate) was greater than 100 µM. It also gave a TGI (EKVX NSCLC) greater than 100 µM, a TGI (HCC-2998 colon) of 9.34 µM and a TGI (HCT-116 colon) greater than 100 µM. For the same compound, the TGI (HCT-15 colon) was greater than 100 µM, the TGI (HL-60(TB) leukemia) was 44.3 µM and the TGI (HOP-62 NSCLC) was 19.2 µM. For the same compound, the TGI (HOP-92 NSCLC) was 20.7 µM, the TGI (HS 578T breast) was 70.9 µM and the TGI (HT29 colon) was greater than 100 µM. It also gave a TGI (IGROV1 ovarian) greater than 31.6 µM, a TGI (K-562 leukemia) greater than 100 µM and a TGI (KM12 colon) greater than 100 µM. It also gave a TGI (LOX IMVI melanoma) greater than 100 µM, a TGI (M14 melanoma) greater than 31.6 µM and a TGI (MALME-3M melanoma) greater than 31.6 µM. It also gave a TGI (MCF7 breast) greater than 31.6 µM, a TGI (MDA-MB-231 breast) greater than 100 µM and a TGI (MDA-MB-435) greater than 31.6 µM. For the same compound, the TGI (MDA-N) was greater than 100 µM, the TGI (MOLT-4 leukemia) was 9.61 µM and the TGI (NCI-H226 lung) was greater than 100 µM. It also gave a TGI (NCI-H23 lung) greater than 100 µM, a TGI (NCI-H460 lung) greater than 100 µM and a TGI (NCI-H522 lung) greater than 31.6 µM. For the same compound, the TGI (NCI/ADR-RES ovarian) was 17.5 µM, the TGI (OVCAR-3 ovarian) was greater than 100 µM and the TGI (OVCAR-4 ovarian) was 2.31 µM. For the same compound, the TGI (OVCAR-5 ovarian) was greater than 100 µM, the TGI (OVCAR-8 ovarian) was greater than 100 µM and the TGI (PC-3 prostate) was greater than 100 µM. It also gave a TGI (RPMI-8226 leukemia) greater than 31.6 µM, a TGI (RXF 393 renal) of 56.6 µM and a TGI (SF-268 CNS) greater than 31.6 µM. It also gave a TGI (SF-295 CNS) of 38.1 µM, a TGI (SF-539 CNS) greater than 100 µM and a TGI (SK-MEL-28 melanoma) greater than 31.6 µM. It also gave a TGI (SK-MEL-5 melanoma) greater than 100 µM, a TGI (SK-OV-3 ovarian) greater than 100 µM and a TGI (SN12C renal) greater than 100 µM. It also gave a TGI (SNB-19 CNS) greater than 100 µM, a TGI (SNB-75 CNS) greater than 100 µM and a TGI (SR leukemia) of 19.2 µM. It also gave a TGI (SW-620 colon) greater than 100 µM, a TGI (T-47D breast) of 31.4 µM and a TGI (TK-10 renal) greater than 100 µM. The TGI (U251 CNS) was greater than 100 µM, the TGI (UACC-257 melanoma) was greater than 100 µM and the TGI (UACC-62 melanoma) was greater than 31.6 µM. For the same compound, the TGI (UO-31 renal) was greater than 100 µM.

With `COC(=O)C(CCC1C=CCC1)N=Cc1ccccc1` (stereo unspecified) the TGI (786-0 renal) was greater than 100 µM, the TGI (A498 renal) was greater than 100 µM and the TGI (A549 NSCLC) was greater than 100 µM. It also gave a TGI (ACHN renal) greater than 100 µM, a TGI (BT-549 breast) greater than 100 µM and a TGI (CAKI-1 renal) greater than 100 µM. It also gave a TGI (CCRF-CEM leukemia) greater than 100 µM, a TGI (COLO 205 colon) greater than 100 µM and a TGI (DU-145 prostate) greater than 100 µM. For the same compound, the TGI (EKVX NSCLC) was greater than 100 µM, the TGI (HCC-2998 colon) was greater than 100 µM and the TGI (HCT-116 colon) was greater than 100 µM. For the same compound, the TGI (HCT-15 colon) was greater than 100 µM, the TGI (HL-60(TB) leukemia) was greater than 100 µM and the TGI (HOP-62 NSCLC) was greater than 100 µM. For the same compound, the TGI (HOP-92 NSCLC) was greater than 100 µM, the TGI (HS 578T breast) was greater than 100 µM and the TGI (HT29 colon) was greater than 100 µM. It also gave a TGI (IGROV1 ovarian) greater than 100 µM, a TGI (K-562 leukemia) greater than 100 µM and a TGI (KM12 colon) greater than 100 µM. For the same compound, the TGI (LOX IMVI melanoma) was greater than 100 µM, the TGI (M14 melanoma) was greater than 100 µM and the TGI (MCF7 breast) was greater than 100 µM. For the same compound, the TGI (MDA-MB-231 breast) was greater than 100 µM, the TGI (MDA-MB-435) was greater than 100 µM and the TGI (MDA-N) was greater than 100 µM. It also gave a TGI (MOLT-4 leukemia) greater than 100 µM, a TGI (NCI-H226 lung) greater than 100 µM and a TGI (NCI-H23 lung) greater than 100 µM. It also gave a TGI (NCI-H460 lung) greater than 100 µM, a TGI (NCI-H522 lung) greater than 100 µM and a TGI (NCI/ADR-RES ovarian) greater than 100 µM. For the same compound, the TGI (OVCAR-3 ovarian) was greater than 100 µM, the TGI (OVCAR-4 ovarian) was greater than 100 µM and the TGI (OVCAR-5 ovarian) was greater than 100 µM. The TGI (OVCAR-8 ovarian) was greater than 100 µM, the TGI (PC-3 prostate) was greater than 100 µM and the TGI (RPMI-8226 leukemia) was 84.7 µM. The TGI (RXF 393 renal) was greater than 100 µM, the TGI (SF-268 CNS) was greater than 100 µM and the TGI (SF-295 CNS) was greater than 100 µM. The TGI (SF-539 CNS) was greater than 100 µM, the TGI (SK-MEL-2 melanoma) was greater than 100 µM and the TGI (SK-MEL-28 melanoma) was greater than 100 µM. For the same compound, the TGI (SK-MEL-5 melanoma) was greater than 100 µM, the TGI (SK-OV-3 ovarian) was greater than 100 µM and the TGI (SN12C renal) was greater than 100 µM. The TGI (SNB-19 CNS) was greater than 100 µM, the TGI (SNB-75 CNS) was greater than 100 µM and the TGI (SR leukemia) was greater than 100 µM. It also gave a TGI (SW-620 colon) greater than 100 µM, a TGI (T-47D breast) greater than 100 µM and a TGI (TK-10 renal) greater than 100 µM. For the same compound, the TGI (U251 CNS) was greater than 100 µM, the TGI (UACC-257 melanoma) was greater than 100 µM and the TGI (UACC-62 melanoma) was greater than 100 µM. It also gave a TGI (UO-31 renal) greater than 100 µM.

For `N#Cc1[nH]c(=O)n(-c2ccc(Cl)cc2)c1N`, the TGI (786-0 renal) was greater than 10 µM, the TGI (A498 renal) was greater than 10 µM and the TGI (A549 NSCLC) was greater than 10 µM. The TGI (ACHN renal) was greater than 10 µM, the TGI (BT-549 breast) was greater than 10 µM and the TGI (CAKI-1 renal) was greater than 10 µM. The TGI (CCRF-CEM leukemia) was greater than 10 µM, the TGI (COLO 205 colon) was greater than 10 µM and the TGI (DU-145 prostate) was greater than 10 µM. It also gave a TGI (EKVX NSCLC) greater than 10 µM, a TGI (HCC-2998 colon) greater than 10 µM and a TGI (HCT-116 colon) greater than 10 µM. For the same compound, the TGI (HCT-15 colon) was greater than 10 µM, the TGI (HL-60(TB) leukemia) was greater than 10 µM and the TGI (HOP-62 NSCLC) was greater than 10 µM. It also gave a TGI (HS 578T breast) greater than 10 µM, a TGI (HT29 colon) greater than 10 µM and a TGI (IGROV1 ovarian) greater than 10 µM. The TGI (K-562 leukemia) was greater than 10 µM, the TGI (KM12 colon) was greater than 10 µM and the TGI (LOX IMVI melanoma) was greater than 10 µM. It also gave a TGI (M14 melanoma) greater than 10 µM, a TGI (MALME-3M melanoma) greater than 10 µM and a TGI (MCF7 breast) greater than 10 µM. For the same compound, the TGI (MDA-MB-231 breast) was greater than 10 µM, the TGI (MDA-MB-435) was greater than 10 µM and the TGI (MDA-N) was greater than 10 µM. The TGI (MOLT-4 leukemia) was greater than 10 µM, the TGI (NCI-H226 lung) was greater than 10 µM and the TGI (NCI-H23 lung) was greater than 10 µM. It also gave a TGI (NCI-H460 lung) greater than 10 µM, a TGI (NCI-H522 lung) greater than 10 µM and a TGI (NCI/ADR-RES ovarian) greater than 10 µM. For the same compound, the TGI (OVCAR-3 ovarian) was greater than 10 µM, the TGI (OVCAR-4 ovarian) was greater than 10 µM and the TGI (OVCAR-5 ovarian) was greater than 10 µM. The TGI (OVCAR-8 ovarian) was greater than 10 µM, the TGI (PC-3 prostate) was greater than 10 µM and the TGI (RPMI-8226 leukemia) was greater than 10 µM. The TGI (RXF 393 renal) was greater than 10 µM, the TGI (SF-268 CNS) was greater than 10 µM and the TGI (SF-295 CNS) was greater than 10 µM. For the same compound, the TGI (SF-539 CNS) was greater than 10 µM, the TGI (SK-MEL-2 melanoma) was greater than 10 µM and the TGI (SK-MEL-28 melanoma) was greater than 10 µM. For the same compound, the TGI (SK-MEL-5 melanoma) was greater than 10 µM, the TGI (SK-OV-3 ovarian) was greater than 10 µM and the TGI (SN12C renal) was greater than 10 µM. The TGI (SNB-19 CNS) was greater than 10 µM, the TGI (SR leukemia) was greater than 10 µM and the TGI (T-47D breast) was greater than 10 µM. It also gave a TGI (TK-10 renal) greater than 10 µM, a TGI (U251 CNS) greater than 10 µM and a TGI (UACC-257 melanoma) greater than 10 µM. It also gave a TGI (UACC-62 melanoma) greater than 10 µM.
